Test results taken from EP0494754A1, “3-hydroxypyridin-4-one derivatives as pharmaceutical compositions” (BRITISH TECHNOLOGY GROUP LTD, priority 1991, dated 1992).

Key:
Assay type in all cases: cell-based
[1] = test system: P. falciparum; experiment: Inhibition of growth of P. falciparum in red cell culture (tritiated hypoxanthine uptake, continuous exposure to chelator)
Protocol: (A) An uncloned strain of P. falciparum, ITO4, was grown on blood group O red cells using a modification of the method described by Trager et al in Science, 1976, […], 673. An atmopshere consisting of 1% oxygen, 3% carbon dioxide and 96% nitrogen was maintained throughout the experiments. Red cells were suspended at a hematocrit of 3% in RPMI 1640 that had been supplemented with 10% v/v human serum, 2 g/l glucose, 4 mM NaOH, 25 µg/ml gentamicin, 1.9 mM glutamine and 25 mM HEPES to form complete medium. For experimental purposes the red cells were then further diluted with the same medium to a final hematocrit of 1.5%. Synchronised parasite cultures were obtained using a combination of sorbitol lysis and gelatin flotation, as described respectively by Jensen et al in Am. J. Trop. Med. Hyg., 1978, 27, 1274 and Lambros et al in J. Parasitol., 1979, 65, 418, thus ensuring that only young ring forms remained. The starting parasitemia in each experiment was between 0.1 and 0.5%.
A red cell suspension containing only recently synchronised ring parasites was treated with 0.2 µCi of tritiated hypoxanthine per 100 µl of red cell suspension and one of ten chelating agents as identified in the Table was added in complete medium to the suspension in an amount such as to produce an iron binding concentration of 100 µmol of iron per litre (all of the chelators combine with iron in a ratio of 3 moles of chelator:1 mole of iron apart from the chelator number 10, desferrioxamine, which combines in a 1:1 molar ratio). The test cultures were immediately dispersed in 200 µl aliquots into 96 well microculture plates. Each chelator was tested in three or more wells and the whole experiment was carried out at least twice for each chelator. Control cultures were used in each experiment which contained no iron chelator.
The growth of the P. falciparum parasites was assessed both by light microscopy examination of thin films that had been stained with Giemsa and through measurement of tritiated hypoxanthine uptake, the cell cultures being harvested onto glass fibre filters and radioactivity, in terms of beta emission from each well, being measured in a flat bed liquid scintillation counter as described by Potter et al in Phys. Med. Biol., 1986, 31(4), 361.
The chelators tested consisted of 1-(2′-carboxyethyl)-3-hydroxy-2-methylpyridin-4-one (R₁ = CH₂CH₂CO₂H, R₂ = CH₃, R₃ = R₄ = H; compound 1) and, for the purposes of comparison with this chelator, nine other chelators not of formula (I) as defined hereinbefore, of which compounds 2 to 9 are 3-hydroxypyridin-4-ones and compound 10 is desferrioxamine. […] These findings were supported by a morphological examination of red cells sampled from the cultures. […] (B) The effect of using different dosage levels than the 100 µmol/l level used in (A) was studied employing the same procedure but using four dosage levels of 10 µmol/l, 25 µmol/l, 50 µmol/l and […]. Only the eight chelators which produced an inhibitory effect at 100 µmol/l were studied and controls containing no iron chelator were again employed.

[2] = test system: P. falciparum; experiment: Red cell reinvasion at the beginning of the second parasite cycle (light microscopy)
Protocol: A study was made of red cells from cultures involving various dosage levels harvested at the beginning of the second parasite cycle, when young rings could be identified in untreated control cultures in order to determine whether or not red cell reinvasion had occurred in the cultures that had been exposed to a chelator. […] However, for the 3-hydroxypyridin-4-one compounds 1 to 6 and 9, young ring parasites were frequently found after incubation at a 25 µmol/l dosage level of the chelator and were always found at a 10 µmol/l dosage level, no significant differences being seen between the different compounds. At 50 µmol/l and 100 µmol/l no evidence of reinvasion was found. Thus, although the 3-hydroxypyridin-4-ones do produce growth inhibition at the lower dosage levels of 10 µmol/l and 25 µmol/l, higher levels than this are required to produce a cytocidal action.

[3] = test system: MEL cells, clone 585; experiment: Inhibition of growth of murine erythroleukaemia (MEL) cells, cell counting; details: 50 µmol/l iron binding concentration; after 30 hours; Figure 2
Protocol: MEL cells, clone 585, were grown in suspension culture at 37°C in RPMI 1640 that had been supplemented with 13% v/v foetal calf serum, 25 µl/ml gentamicin, 1.9 mM glutamine and 2% diaminopurine as described by Peto et al in Br. J. Haematol., 1983, 54, 623. The cultures were maintained in an atmosphere containing 5% carbon dioxide and passaged every 3-4 days at a seeding concentration of 1-2 x 10⁴/ml to ensure that the cells were continually in logarithmic growth phase. Under these conditions, the doubling time for cell growth was 30-36 hours.
10 ml volumes of cell suspension were incubated in 50 ml flasks with each of the ten chelators identified in the Table at a 50 µmol/l iron binding concentration, controls being employed which contained no chelator. 400 µl aliquots were removed in duplicate for growth assessment at 24 hour intervals over the next four days. The experiment was repeated on three separate occasions, the initial cell concentration in each case being 2-3 x 10⁴ cells/ml. Cell growth was assessed both by examination of cultures using light microscopy and by cell counting. At various times throughout each experiment, 400 µl culture was added to 19.6 ml Isoton and the number of particles counted using a Coulter Counter ZN set at threshold 20 and attenuation 0.4
The effect of the different chelators on growth of the MEL cells after 30 hours was compared with the effect produced after a similar time by the same chelators at a 50 µmol/l iron binding concentration using the procedure described in Example 2(A). The results are illustrated in Figure 2. It will be seen that the compounds 2, 3, 4, 5, 6, 9 and 10 inhibited growth of MEL cells and of P. falciparum, the minimum growth inhibition being 80% and 70% respectively. […] When these two groups of chelators were examined together a close linear correlation (r = 0.978) was found between the degree of growth inhibition produced in both types of cell for each chelator studied. The compound 1 was distinguished from all of the other chelators in being the only one to have no significant inhibitory effect on the growth of MEL cells (<10%) whilst at the same time producing a substantial inhibitory effect on the growth of P. falciparum (>75%).

SMILES: CC(=O)N(O)CCCCCNC(=O)CCC(=O)N(O)CCCCCNC(=O)CCC(=O)N(O)CCCCCN [compound 10, Desferrioxamine]
- growth inhibition of P. falciparum ([1]; 50 µmol/l iron binding concentration, after 30 hours, Figure 2): ≥ 70%
- IC50 ([1]; Plasmodium falciparum, four dosage levels (iron binding concentration), same procedure as (A), read-out: ID50 (the source's name)): 10 to 20 µM
- percentage inhibition of growth after 30 hours as compared with the controls ([1]; iron binding concentration of 100 µmol of iron per litre, 30 hours, Figure 1): more than 65%
- red cell reinvasion (young ring parasites) ([2]; 10 µmol/l dosage level): always found
- red cell reinvasion (young ring parasites) ([2]; 25 µmol/l dosage level): No evidence was found of reinvasion
- red cell reinvasion (young ring parasites) ([2]; 50 µmol/l dosage level): No evidence was found of reinvasion
- red cell reinvasion (young ring parasites) ([2]; 100 µmol/l dosage level): No evidence was found of reinvasion
- growth inhibition of MEL cells [3]: ≥ 80%
